# Tested on: HeLa cells
# Test: Cell-based pharmacodynamic assay (CellTiter-Glo proliferation inhibition), HeLa
# Conditions: human cervical cancer HeLa cells; 72 hours incubation; CellTiter-Glo luminescence; read-out: IC50 against HeLa cells
# Experimental: Complete media such as RPMI 1640 (Gibco, A1049101), EMEM (ATCC, 30-2003), DMEM (Gibco, C11995500CP), McCoy's 5A (Gibco, 16600082), and F-12K (ATCC, 30-2004) were prepared by supplementing with varying concentrations of FBS (Biological Industries, 04-002-1A) and 1% Penicillin-Streptomycin (Gibco, 15140122) and was thoroughly mixed. Tumor cell lines including HeLa (ATCC, CCL-2; EMEM + 10% FBS), TOV-21G (Cobioer, CBP60292; 1:1 mixture of MCDB 105 and Medium 199 + 15% FBS), OVCAR-3 (ATCC, HTB-161; RPMI 1640 + 20% FBS + 0.01 mg/ml bovine insulin), SK-OV-3 (ATCC, HTB-77; McCoy's 5A + 10% FBS), A2780 (Cobioer, CBP60283; RPMI 1640 + 10% FBS), OC316 (Cobioer, CBP60620; RPMI 1640 + 10% FBS), HuH-7 (Cobioer, CBP60202; DMEM + 10% FBS), SNU-398 (ATCC, CRL-2233; RPMI 1640 + 10% FBS), NCI-H2286 (ATCC, CRL-5938; RPMI 1640 + 5% FBS), NCI-H82 (ATCC, HTB-175; RPMI 1640 + 10% FBS), A549 (ATCC, CCL-185; F-12K + 10% FBS), SK-MEL-3 (ATCC, HTB-69; McCoy's 5A + 15% FBS), PSN-1 (Cobioer, CBP61215; RPMI 1640 + 10% FBS), LoVo (ATCC, CCL-229; F-12K + 10% FBS), DLD-1 (ATCC, CCL-221; RPMI 1640 + 10% FBS), HCT-15 (ATCC, CCL-225; RPMI 1640 + 10% FBS), A498 (ATCC, HTB-44; EMEM + 10% FBS), LNCaP (ATCC, CRL-1740; RPMI 1640 + 10% FBS), SNU-1 (ATCC, CRL-5971; RPMI 1640 + 10% FBS), SCC-9 (Cobioer, CBP60428; DMEM/F12 (1:1) + 10% FBS + 0.5 mM sodium pyruvate + 400 ng/ml hydrocortisone), SU-DHL-5 (ATCC, CRL-2958; RPMI 1640 + 10% FBS), Toledo (ATCC, CRL-2631; RPMI 1640 + 10% FBS), and SJCRH30 (ATCC, CRL-2061; RPMI 1640 + 10% FBS) were thawed. Cells were passaged approximately twice, and those in good growth condition (typically passages 4-6) were selected for experiments. The medium was aspirated, and the cells were washed once with 0.25% trypsin (Invitrogen, 25200-072). The waste liquid was discarded, and 3 mL of fresh trypsin was added to the culture flask for digestion. When the cells began to detach, 9 mL of complete medium was added to neutralize the trypsin digestion, and the mixture was gently mixed. The cell suspension was transferred to a centrifuge tube using a pipette and centrifuged at 1000 rpm for 5 minutes. The supernatant was discarded, and 5 mL of medium was added to the centrifuge tube to gently resuspend the cells evenly. The cell concentration was adjusted to 1×10^4/mL-3×10^4/mL using a cell counter (Beckman Coulter, Vi-cellTM XR). The cell suspension was added to a 96-well plate (Corning, 3903) at 100 µL/well. The plate was labeled with details such as cell name, seeding density, and date, and then placed in a CO2 incubator (Thermo, Thermo 3111) overnight. Test compounds were prepared as 20 mM stock solutions in DMSO (Sigma, D4540-1L) and added to the corresponding cell wells using an HPD300 automated dispenser according to the designed layout. The plates were incubated in a 37°C, 5% CO2 incubator for 72 hours. CellTiter-Glo Buffer was thawed at room temperature. The lyophilized CellTiter-Glo substrate was equilibrated to room temperature. The CellTiter-Glo Buffer was added to the CellTiter-Glo substrate and thoroughly mixed. The cell plates were removed and equilibrated to room temperature, and 50 µL of the mixed CellTiter-Glo reagent was added to each well. The plates were protected from light and shaken for 10 minutes, followed by incubation for 10 minutes. The plates were placed in an Enspire reader (luminescence measurement time: 0.5 s) to record luminescence results. The inhibition rate was calculated using the following formula: Inhibition rate (%) = (1 - (RLU_compound - RLU_blank) / (RLU_DMSO - RLU_blank)) × 100%. Dose-response curves were plotted using XLFit to calculate IC50 values. A four-parameter model was used: [fit = (A + ((B - A) / (1 + ((C/x) ^ D)))]. The test results for HeLa cells are shown in Table 1. Table 1: IC50 values of some test compounds against human cervical cancer HeLa cells
row,SMILES,IC50 [nM]
1,CCOC(=O)c1cccc2[nH]c3c(c12)CCC(NCCO)C3=O (racemic) [Compound B131],≤ 500
2,Cc1ccc2[nH]c3c(c2c1)CCCC3=NCC(O)CO (racemic) [Compound E01],≤ 500
3,O=C1CCCc2c1[nH]c1cccc(-c3ccccc3)c21 [Compound B48],≤ 500
4,O=C1CCCc2c1[nH]c1cccc(C(=O)OCc3ccc(F)cc3)c21 [Compound B43],≤ 500
5,COc1ccc(Cn2nnc(-c3cccc4[nH]c5c(c34)CCCC5=O)n2)cc1 [Compound B94],≤ 500
6,Cc1ccc2[nH]c3c(c2c1)CCCC3=NCC(C)(C)O [Compound E03],≤ 500
7,COC(=O)c1cccc2[nH]c3c(c12)CCCC3=NC(C)C [Compound E47],≤ 200
8,CCOC(=O)c1cccc2c1c1c(n2C(=O)C2(F)CCOCC2)C(=O)CCC1 [Compound C49],≤ 200
9,"Cc1ccc2[nH]c3c(c2c1)C(C)CCC3=NCCO (single isomer, unassigned) [Compound E41]",≤ 500
10,CC(C)C(=O)Oc1cccc2[nH]c3c(c12)CCCC3=O [Compound B33],≤ 200
11,Cc1ccc2[nH]c3c(c2c1)CCC1(CC1)C3=O [Compound B14],≥ 5000
12,Cc1ccc2[nH]c3c(c2c1)CCCC3=NC1CCN(CC(F)(F)F)CC1C (centres unmarked) [Compound E65],≤ 200
13,C[C@@H](O)COC(=O)c1cccc2[nH]c3c(c12)CCCC3=O [Compound B147],≤ 200
14,CCOC(=O)c1cccc2c1c1c(n2C(=O)c2c[nH]cc2C(F)(F)F)C(=O)CCC1 [Compound C57],≤ 500
15,O=C1CCCc2c1[nH]c1cccc(-c3cnc4[nH]ncc4c3)c21 [Compound B50],≤ 200
16,Cc1ccc2[nH]c3c(c2c1)CCCC3=NC1CCN(C)CC1 [Compound E13],≤ 200

row,SMILES,IC50 [nM]
1,CCOC(=O)c1c(Cl)ccc2[nH]c3c(c12)CCCC3=O [Compound B118],≤ 200
2,Cc1nsc(-c2cccc3[nH]c4c(c23)CCCC4=O)n1 [Compound B71],≤ 200
3,CC(C)OC(=O)c1cccc2[nH]c3c(c12)CCCC3=O [Compound B17],≤ 200
4,CCOC(=O)c1cccc2c1c1c(n2C(=O)CCCCCO)C(=O)CCC1 [Compound C55],≤ 200
5,O=C1CCCc2c1[nH]c1cccc(C(=O)OC3COCC3O)c21 (centres unmarked) [Compound B186],≤ 500
6,CCOC(=O)c1cccc2c1c1c(n2C(=O)/C=C/c2ccc(OC)c(OC)c2)C(=O)CCC1 [Compound C59],≤ 200
7,CCOC(=O)c1cccc2c1c1c(n2C(=O)c2cc(C)cc(OCC)n2)C(=O)CCC1 [Compound C32],≤ 200
8,CCOCCOCC(=O)n1c2c(c3c(C(=O)OCC)cccc31)CCCC2=O [Compound C44],≤ 200
9,C#CC(C)OC(=O)c1cccc2[nH]c3c(c12)CCCC3=O (racemic) [Compound B36],≤ 200
10,NS(=O)(=O)c1cccc2[nH]c3c(c12)CCCC3=O [Compound B75],≤ 500
11,CCC(OC(=O)c1cccc2[nH]c3c(c12)CCCC3=O)C1CC1 (racemic) [Compound B138],≤ 500
12,CN(C)c1cccc2[nH]c3c(c12)CCCC3=O [Compound B65],≤ 200
13,CC(O)CCCOC(=O)c1cccc2[nH]c3c(c12)CCCC3=O (racemic) [Compound B142],≤ 200
14,CC(OC(=O)c1cccc2[nH]c3c(c12)CCCC3=O)C(=O)N(C)C (racemic) [Compound B37],≤ 1000
15,Cc1nn(C)cc1-c1cccc2[nH]c3c(c12)CCCC3=O [Compound B180],≤ 500

# The next lines start with the values.
row,IC50 [nM],SMILES
1,≤ 200,O=C1CCCc2c1[nH]c1cccc(C(=O)OC3CC(O)C3)c21 (centres unmarked) [Compound B129]
2,≤ 200,[2H]C([2H])([2H])c1ccc2[nH]c3c(c2c1)CCCC3=NCC(=O)OC(C)(C)C [Compound E32]
3,≤ 200,COC(=O)c1c(C)ccc2[nH]c3c(c12)CCCC3=O [Compound B87]
4,≤ 200,O=C1CCCc2c1[nH]c1cccc(C(=O)OC3CCC(O)CC3)c21 (centres unmarked) [Compound B130]
5,≤ 200,C#Cc1ccc(COC(=O)c2cccc3[nH]c4c(c23)CCCC4=O)s1 [Compound B120]
6,≤ 200,COC(=O)c1cccc2[nH]c3c(c12)CCCC3=NC1CCN(C)CC1 [Compound E62]
7,≤ 200,COC(=O)c1cccc2[nH]c3c(c12)CCC3=O [Compound B51]
8,≤ 200,C#CCC(C)OC(=O)c1cccc2[nH]c3c(c12)CCCC3=O (racemic) [Compound B114]
9,≤ 200,COC(=O)c1ccc2[nH]c3c(c2c1)CCCC3=NCCO [Compound E36]
10,≤ 200,CCOC(=O)c1cccc2c1c1c(n2C(=O)c2ccccc2OC)C(=O)CCC1 [Compound C25]
11,≤ 200,Cc1ccc2[nH]c3c(c2c1)CCCC3=NC(CC(=O)OC(C)(C)C)C(=O)OC(C)(C)C (centres unmarked) [Compound E55]
12,≤ 200,COC(=O)c1cccc2[nH]c3c(c12)CCCC3=NC(C)C(F)(F)F (centres unmarked) [Compound E70]
13,≤ 200,Cc1ccc2[nH]c3c(c2c1)CCCC3=NC1(CO)CCC1 [Compound E08]
14,≤ 200,O=C1CCCc2c1[nH]c1cccc(C(=O)OC3CC3)c21 [Compound B26]
15,≤ 200,CCOC(=O)c1cccc2c1c1c(n2C(=O)c2ncoc2C)C(=O)CCC1 [Compound C26]
16,≤ 200,CC(OC(=O)c1cccc2[nH]c3c(c12)CCCC3=O)C(F)(F)F (racemic) [Compound B44]
17,≤ 200,COCCOC(=O)c1cccc2[nH]c3c(c12)CCCC3=O [Compound B38]
18,≤ 200,O=C1CCCc2c1[nH]c1cccc(C(=O)OC3CCOC3)c21 (racemic) [Compound B137]
19,≤ 200,CCCCCC(=O)n1c2c(c3c(-c4cnn(C(C)C)c4)cccc31)CCCC2=O [Compound C52]
20,≤ 200,C#Cc1cccc(C(=O)n2c3c(c4c(C(=O)OCC)cccc42)CCCC3=O)c1 [Compound C22]
21,≤ 200,CCCCCOC(=O)n1c2c(c3c(C(=O)OCC)cccc31)CCCC2=O [Compound C16]
22,≤ 200,Cc1ccc2[nH]c3c(c2c1)CCCC3=NC(C(=O)OC(C)(C)C)C(C)C (centres unmarked) [Compound E56]
23,≤ 200,CCOC(=O)c1cccc2c1c1c(n2C(=O)CCCCCN)C(=O)CCC1 [Compound C42]
24,≤ 200,COC(=O)c1cccc2[nH]c3c(c12)CCCC3=NC(CO)C(C)C (racemic) [Compound E60]
25,≤ 200,Cc1ccc2[nH]c3c(c2c1)CCCC3=NCC1(C)NC(=O)NC1=O (centres unmarked) [Compound E07]
26,≤ 200,NC(=O)COC(=O)c1cccc2[nH]c3c(c12)CCCC3=O [Compound B148]
27,≤ 200,COCCOC1CCC(N=C2CCCc3c2[nH]c2ccc(C)cc32)CC1 (centres unmarked) [Compound E46]
28,≤ 200,CCOC(=O)c1cccc2c1c1c(n2C(=O)C2OC2C)C(=O)CCC1 (centres unmarked) [Compound C30]

# Reference: EP4711356A1, “TETRAHYDROCARBAZOLE DERIVATIVE, PHARMACEUTICAL COMPOSITION, AND USE THEREOF” (Nain Biotech (Hangzhou) Co., Ltd., priority 2023, dated 2024)
